From ChEMBL document CHEMBL4831501, “Discovery of a potent and selective inhibitor of histone lysine demethylase KDM4D” (Eur J Med Chem, 2021)

Columns and labels:
[1] = biological target: T1, Lysine-specific demethylase 4D (Homo sapiens, UniProt Q6B0I6); assay: Inhibition of human KDM4D expressed in Escherichia coli BL21 (DE3) using biotinylated H3-derived peptide and 2-OG as substrate preincubated for 15 mins followed by substrate addition and measured after 1 hr by AlphaLISA assay
T1 sequence (Q6B0I6 whole entry): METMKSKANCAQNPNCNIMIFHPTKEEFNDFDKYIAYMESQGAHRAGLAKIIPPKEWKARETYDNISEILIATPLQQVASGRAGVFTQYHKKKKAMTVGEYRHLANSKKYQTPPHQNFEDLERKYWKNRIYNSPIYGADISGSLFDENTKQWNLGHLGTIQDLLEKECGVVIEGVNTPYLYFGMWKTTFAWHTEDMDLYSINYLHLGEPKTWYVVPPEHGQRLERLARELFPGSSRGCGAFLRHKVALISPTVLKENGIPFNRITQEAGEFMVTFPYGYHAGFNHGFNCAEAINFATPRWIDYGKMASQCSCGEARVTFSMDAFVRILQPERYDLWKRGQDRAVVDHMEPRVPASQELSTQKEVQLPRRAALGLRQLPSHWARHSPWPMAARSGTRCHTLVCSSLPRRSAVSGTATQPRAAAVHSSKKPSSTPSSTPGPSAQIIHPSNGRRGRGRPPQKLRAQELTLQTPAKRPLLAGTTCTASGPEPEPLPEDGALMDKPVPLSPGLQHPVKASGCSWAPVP

[2] = biological target: T2, Lysine-specific demethylase 4D (Homo sapiens) (UniProt Q6B0I6); assay: Inhibition of human KDM4D expressed in Escherichia coli BL21 (DE3) at 1 uM using biotinylated H3-derived peptide and 2-OG as substrate preincubated for 15 mins followed by substrate addition and measured after 1 hr by AlphaLISA assay; settings: time 75.0 min
T2 sequence (whole entry): T1 sequence (Q6B0I6 whole entry)

| IC50 [1] [nM] | inhibition [2] [%] | Compound |
| --- | --- | --- |
| 499 | 98.3 | COC(=O)c1cccc(C(c2cc3c(cc2O)OCO3)N2CC[C@@H](NC(=O)OC(C)(C)C)C2)c1 (stereo partly drawn) |
| 155 | 99.8 | O=C(N[C@@H]1CCN(C(c2ccncc2)c2cc3c(cc2O)OCO3)C1)C1CC1 (stereo partly drawn) |
| 528 | 99.2 | O=C(N[C@@H]1CCN(C(c2ccncc2)c2cc3c(cc2O)OCO3)C1)C1CCCCC1 (stereo partly drawn) |
| 382 | 98.7 | CC(C)(C)OC(=O)N[C@@H]1CCN(C(c2ccc(C#N)c(F)c2)c2cc3c(cc2O)OCO3)C1 (stereo partly drawn) |
| 109 | 99.7 | CC(C)(C)OC(=O)N[C@@H]1CCN(C(c2cccc(-n3ccnc3)c2)c2cc3c(cc2O)OCO3)C1 (stereo partly drawn) |
| 330 | 99.4 | CC(C)(C)OC(=O)N[C@@H]1CCN(C(c2cc3c(cc2O)OCO3)c2ccc(C#N)cc2F)C1 (stereo partly drawn) |
| 188 | 97.2 | CC(C)(C)NC(=O)N[C@@H]1CCN(C(c2ccncc2)c2cc3c(cc2O)OCO3)C1 (stereo partly drawn) |
| 342 | 94.4 | CCOc1ccccc1C(=O)N[C@@H]1CCN(C(c2ccncc2)c2cc3c(cc2O)OCO3)C1 (stereo partly drawn) |
| 220 | 96.5 | CC(C)C(=O)N[C@@H]1CCN(C(c2ccncc2)c2cc3c(cc2O)OCO3)C1 (stereo partly drawn) |
| 135 | 97.2 | CC(C)(C)OC(=O)N[C@@H]1CCN(C(c2ccncc2)c2cc3c(cc2O)OCO3)C1 (stereo partly drawn) |
| 586 | 98.2 | O=C(O[C@@H]1CCN(C(c2ccncc2)c2cc3c(cc2O)OCO3)C1)C1CC1 (stereo partly drawn) |
| 892 | 96.6 | O=C(N[C@H]1CCN(C(c2ccncc2)c2cc3c(cc2O)OCO3)C1)C1CC1 (stereo partly drawn) |
| 509 | 94.6 | Cn1nccc1C(c1cc2c(cc1O)OCO2)N1CC[C@@H](NC(=O)OC(C)(C)C)C1 (stereo partly drawn) |
| 482 | 96.5 | CC(C)(C)OC(=O)N[C@@H]1CCN(C(c2cccc(C#N)c2)c2cc3c(cc2O)OCO3)C1 (stereo partly drawn) |
| 170 | 97.3 | CCOc1ccc(C(=O)N[C@@H]2CCN(C(c3ccncc3)c3cc4c(cc3O)OCO4)C2)cc1 (stereo partly drawn) |
|  | -8.59 | CC(C)(C)OC(=O)N[C@@H]1CCN(C(c2ccncc2)c2ccc(C(C)(C)C)cc2O)C1 (stereo partly drawn) |
| 173 | 97.3 | CC(C)(C)OC(=O)N[C@@H]1CCN(C(c2cc3c(cc2O)OCO3)c2ccc(F)cc2F)C1 (stereo partly drawn) |
| 187 | 94.2 | O=C(N[C@@H]1CCN(C(c2ccncc2)c2cc3c(cc2O)OCO3)C1)c1ccccc1Cl (stereo partly drawn) |
|  | 44.3 | COc1ccc(C(c2ccncc2)N2CC[C@@H](NC(=O)OC(C)(C)C)C2)c(O)c1 (stereo partly drawn) |
| 536 | 99.9 | O=C(N[C@@H]1CCN(C(c2ccncc2)c2cc3c(cc2O)OCO3)C1)c1ccccc1 (stereo partly drawn) |
|  | 10.6 | CC(C)(C)OC(=O)N[C@@H]1CCN(C(c2ccc(-c3ccccc3)cc2)c2cc3c(cc2O)OCO3)C1 (stereo partly drawn) |
|  | 2.78 | CC(C)(C)OC(=O)N[C@@H]1CCN(C(c2ccncc2)c2cc3c(cc2O)OCCO3)C1 (stereo partly drawn) |

| IC50 [1] [nM] | inhibition [2] [%] | Compound |
| --- | --- | --- |
| 632 | 98.6 | COc1cc(O)c(C(c2ccncc2)N2CC[C@@H](NC(=O)OC(C)(C)C)C2)cc1OC (stereo partly drawn) |
| 192 | 98.2 | CC(C)(C)OC(=O)N[C@@H]1CCN(C(c2ccc(F)cc2)c2cc3c(cc2O)OCO3)C1 (stereo partly drawn) |
| 445 | 99.4 | COC(=O)c1ccc(C(c2cc3c(cc2O)OCO3)N2CC[C@@H](NC(=O)OC(C)(C)C)C2)cc1 (stereo partly drawn) |
|  | 64.4 | CC(C)(C)OC(=O)N[C@@H]1CCN(C(c2cncnc2)c2cc3c(cc2O)OCO3)C1 (stereo partly drawn) |
| 609 | 76 | CC(C)(C)OC(=O)N[C@@H]1CCN(C(c2ccncc2)c2cc3c(cc2O)OC(C)(C)O3)C1 (stereo partly drawn) |
| 437 | 96.6 | O=C(N[C@@H]1CCN(C(c2ccncc2)c2cc3c(cc2O)OCO3)C1)c1ccccc1F (stereo partly drawn) |
| 223 | 95.6 | CC(C)(C)OC(=O)N[C@@H]1CCN(C(c2cccc(-c3ccncc3)c2)c2cc3c(cc2O)OCO3)C1 (stereo partly drawn) |
|  | -6.01 | CC(C)(C)OC(=O)N[C@@H]1CCN(C(c2ccncc2)c2cc3c(cc2O)CCC3)C1 (stereo partly drawn) |
| 126 | 96.6 | CC(C)(C)OC(=O)N[C@@H]1CCN(C(c2ccc(-c3ccncc3)cn2)c2cc3c(cc2O)OCO3)C1 (stereo partly drawn) |
| 212 | 97.5 | COc1ccc(OC)c(C(c2ccncc2)N2CC[C@@H](NC(=O)OC(C)(C)C)C2)c1O (stereo partly drawn) |
| 145 | 99.8 | CC(C)(C)OC(=O)N[C@@H]1CCN(C(c2ccc(-c3ccccn3)cc2)c2cc3c(cc2O)OCO3)C1 (stereo partly drawn) |
|  | 0.88 | CC(C)(C)OC(=O)N[C@@H]1CCN(C(c2ccncc2)c2cc3c(cc2O)OC(F)(F)O3)C1 (stereo partly drawn) |
| 184 | 96.2 | CC(C)(C)OC(=O)N[C@@H]1CCN(C(c2cccc(-c3cccnc3)c2)c2cc3c(cc2O)OCO3)C1 (stereo partly drawn) |
| 141 | 99.4 | CC(C)(C)OC(=O)N[C@@H]1CCN(C(c2ccc(C#N)cc2)c2cc3c(cc2O)OCO3)C1 (stereo partly drawn) |
| 285 | 91.4 | CC(C)(C)OC(=O)N[C@@H]1CCN(C(c2cccc(-c3ccccn3)c2)c2cc3c(cc2O)OCO3)C1 (stereo partly drawn) |
| 45 | 100 | CC(C)(C)OC(=O)N[C@@H]1CCN(C(c2ccc(C#N)cn2)c2cc3c(cc2O)OCO3)C1 (stereo partly drawn) |
| 546 | 99.4 | COc1cccc(C(=O)N[C@@H]2CCN(C(c3ccncc3)c3cc4c(cc3O)OCO4)C2)c1 (stereo partly drawn) |
| 444 | 95.6 | CC(C)(C)OC(=O)N[C@@H]1CCN(C(c2ccc(-n3cccc3)cc2)c2cc3c(cc2O)OCO3)C1 (stereo partly drawn) |
| 117 | 98.5 | CC(C)(C)OC(=O)N[C@@H]1CCN(C(c2cc3c(cc2O)OCO3)c2ccc(F)cc2Cl)C1 (stereo partly drawn) |
|  | -7.31 | CC(C)(C)OC(=O)N[C@@H]1CCN(C(c2cc3c(cc2O)OCO3)C2CCCCC2)C1 (stereo partly drawn) |
| 546 | 98.3 | O=C(NC1CC1)[C@@H]1CCN(C(c2ccncc2)c2cc3c(cc2O)OCO3)C1 (stereo partly drawn) |
| 399 | 99.1 | COc1ccccc1C(=O)N[C@@H]1CCN(C(c2ccncc2)c2cc3c(cc2O)OCO3)C1 (stereo partly drawn) |

| IC50 [1] [nM] | inhibition [2] [%] | Compound |
| --- | --- | --- |
| 56 | 99.7 | CC(C)(C)OC(=O)N[C@@H]1CCN(C(c2ccc(-n3cncn3)cc2)c2cc3c(cc2O)OCO3)C1 (stereo partly drawn) |
| 664 | 98.7 | CC(C)(C)C(=O)N[C@@H]1CCN(C(c2ccncc2)c2cc3c(cc2O)OCO3)C1 (stereo partly drawn) |
| 111 | 99.3 | CC(C)(C)OC(=O)N[C@@H]1CCN(C(c2cc3c(cc2O)OCO3)c2ccc(Cl)cc2F)C1 (stereo partly drawn) |
| 577 | 99.3 | O=S(=O)(N[C@@H]1CCN(C(c2ccncc2)c2cc3c(cc2O)OCO3)C1)C1CC1 (stereo partly drawn) |
| 200 | 95 | CN(C)[C@@H]1CCN(C(c2ccncc2)c2cc3c(cc2O)OCO3)C1 (stereo partly drawn) |
| 519 | 77.5 | CC(=O)N[C@@H]1CCN(C(c2ccncc2)c2cc3c(cc2O)OCO3)C1 (stereo partly drawn) |
| 165 | 97.1 | CC(C)(C)OC(=O)N[C@@H]1CCN(C(c2ccc(-c3ccncc3)nc2)c2cc3c(cc2O)OCO3)C1 (stereo partly drawn) |
|  | 1.9 | CC(C)(C)OC(=O)N[C@@H]1CCN(C(c2ccncc2)c2ccccc2O)C1 (stereo partly drawn) |
| 368 | 98.1 | COc1cc(C#N)ccc1C(c1cc2c(cc1O)OCO2)N1CC[C@@H](NC(=O)OC(C)(C)C)C1 (stereo partly drawn) |
| 220 | 99.2 | CC(C)(C)OC(=O)N[C@@H]1CCN(C(c2ccc(-c3cccnc3)cc2)c2cc3c(cc2O)OCO3)C1 (stereo partly drawn) |
| 171 | 96.4 | CC(C)(C)NC(=S)N[C@@H]1CCN(C(c2ccncc2)c2cc3c(cc2O)OCO3)C1 (stereo partly drawn) |
| 87 | 99.8 | Cc1nccn1-c1ccc(C(c2cc3c(cc2O)OCO3)N2CC[C@@H](NC(=O)OC(C)(C)C)C2)cc1 (stereo partly drawn) |
|  | -3.27 | COc1ccc(O)c(C(c2ccncc2)N2CC[C@@H](NC(=O)OC(C)(C)C)C2)c1 (stereo partly drawn) |
|  | 12.9 | COc1cc(O)c(C(c2ccncc2)N2CC[C@@H](NC(=O)OC(C)(C)C)C2)cc1F (stereo partly drawn) |
|  | -4.8 | CC(C)(C)OC(=O)N[C@@H]1CCN(Cc2cc3c(cc2O)OCO3)C1 |
| 351 | 99.7 | O=C(N[C@@H]1CCN(C(c2ccncc2)c2cc3c(cc2O)OCO3)C1)c1cccc(F)c1 (stereo partly drawn) |
| 642 | 87.6 | CN(C(=O)OC(C)(C)C)[C@@H]1CCN(C(c2ccncc2)c2cc3c(cc2O)OCO3)C1 (stereo partly drawn) |
| 552 | 99 | CC(C)(C)OC(=O)N[C@@H]1CCN(C(c2cnccn2)c2cc3c(cc2O)OCO3)C1 (stereo partly drawn) |
| 100 | 99.5 | CC(C)(C)OC(=O)N[C@@H]1CCN(C(c2cc3c(cc2O)OCO3)c2ccnc3ccccc23)C1 (stereo partly drawn) |
| 193 | 93.6 | O=C(NC[C@@H]1CCN(C(c2ccncc2)c2cc3c(cc2O)OCO3)C1)C1CC1 (stereo partly drawn) |
| 1750 | 33.6 | N[C@@H]1CCN(C(c2ccncc2)c2cc3c(cc2O)OCO3)C1 (stereo partly drawn) |
